Experimental data taken from patent publication US5849691A, “Peptidomimetic inhibitors of cathepsin D and plasmepsins I and II” (The United States of America as represented by the …, priority 1996, dated 1998).
Like-named read-outs stand apart in the source and are kept apart here. Numbered stars: 1 amine (or outer) side, 2 acyl side, 3 side chain; on linkers, the order of the positions; unused ones are H or OH. Bridge positions count the residues as written; N and C are the ends. Square brackets hold non-standard residues; d marks the D form. Peptide text beside a SMILES is read from it. * marks the point of attachment. Ahppa(3S,4S) = O=C(C[C@H](O)[C@H](Cc1ccccc1)N[*:1])[*:2]; Butanoyl(3,3-Me2) = CC(C)(C)CC(=O)*; Isopropoxycarbonyl = CC(C)OC(=O)*; CH2CH2 = C(C[*:2])[*:1]

Experiments:
cathepsin D = cathepsin D (Homo sapiens, UniProt P07339); assay: cathepsin D inhibition assay with fluorogenic substrate (tight-binding kinetics); assay type: biochemical
Method: (§1) Typically, 485 μl of 50 mM Gly-HC1 buffer, pH 3.5 (in the case of cathepsin D), or 100 mM sodium acetate buffer, pH 5.0 (in the case of plasmepsin 2), was mixed with 5 μl of DMSO and 5 μl of titrated protease (final concentration 0.2-10 nM) and incubated 3 min at 37° C. The reaction was initiated by the addition of 5 μl of substrate stock solution in DMSO. Increase in fluorescence intensity at the emission maximum of 487 nm (excitation wavelength was 349 nm) was monitored as a function of time using an Aminco Bowman-2 luminescence spectrometer (SLM Instruments, Inc.).
(§2) The initial rate of hydrolysis was calculated by a second degree polynomial fit using SLM AB2 2.0 operating software. Kinetic parameters were determined by nonlinear regression fitting of initial rate versus substrate concentration data to the Michaelis-Menten equation using the program Enzfitter version 1.05 (Leatherbarrow, R. J. 1987. Enzfitter, a program for non-linear regression analysis. Elsevier Scientific, New York).
For inhibition studies inhibitors were prepared as stock solutions at different concentrations in DMSO. In a typical experiment 485 μl of the appropriate buffer was mixed with 5 μl of inhibitor stock solution and 5 μ of titrated protease (final concentration 0.2-10 nM) and preincubated 3 min at 37° C. The reaction was initiated by the addition of 5 μl of substrate stock solution in DMSO. For data analysis the mathematical model for tight-binding inhibitors (Williams, J. W., and Morrison, J. F. Methods Enzymol. 63:437 (1979)) was used. The data were fitted by nonlinear regression analysis to the equation
V=V0 /2Et ({[K1 (1+S/Km)+It -Et ]^2
+4Ki (1+S/Km)Et }^1/2 -[Ki (1+S/Km)+It

plasmepsin II (PMII) = plasmepsin II (PMII) (Plasmodium falciparum, UniProt P46925); assay: biochemical
Method: as §1, §2
For inhibition studies inhibitors were prepared as stock solutions at different concentrations in DMSO. In a typical experiment 485 μl of the appropriate buffer was mixed with 5 μl of inhibitor stock solution and 5 μ of titrated protease (final concentration 0.2-10 nM) and preincubated 3 min at 37° C. The reaction was initiated by the addition of 5 μl of substrate stock solution in DMSO. […]

plasmepsin I (PMI) = plasmepsin I (PMI) (Plasmodium falciparum, UniProt P39898); assay: biochemical
Sequence of plasmepsin I (PMI) (P39898 124-452): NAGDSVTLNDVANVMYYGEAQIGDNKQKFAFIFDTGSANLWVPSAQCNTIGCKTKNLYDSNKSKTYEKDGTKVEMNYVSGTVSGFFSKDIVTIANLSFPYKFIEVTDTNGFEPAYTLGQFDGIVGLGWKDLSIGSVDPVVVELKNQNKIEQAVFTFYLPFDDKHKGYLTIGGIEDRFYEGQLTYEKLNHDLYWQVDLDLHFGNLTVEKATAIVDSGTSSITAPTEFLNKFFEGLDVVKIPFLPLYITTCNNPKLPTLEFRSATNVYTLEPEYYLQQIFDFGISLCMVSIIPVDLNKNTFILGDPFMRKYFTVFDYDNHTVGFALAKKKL

Sequence of cathepsin D (P07339 65-412): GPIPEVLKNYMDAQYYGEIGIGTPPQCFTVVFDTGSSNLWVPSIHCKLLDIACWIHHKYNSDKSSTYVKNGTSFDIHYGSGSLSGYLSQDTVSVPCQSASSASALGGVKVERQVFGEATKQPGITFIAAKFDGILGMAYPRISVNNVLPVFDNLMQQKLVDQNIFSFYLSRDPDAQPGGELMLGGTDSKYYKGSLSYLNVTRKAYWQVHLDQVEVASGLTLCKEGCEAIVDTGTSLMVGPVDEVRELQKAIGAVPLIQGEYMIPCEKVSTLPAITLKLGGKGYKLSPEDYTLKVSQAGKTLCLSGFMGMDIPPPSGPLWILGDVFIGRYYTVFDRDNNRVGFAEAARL
Sequence of plasmepsin II (PMII) (P46925 125-453): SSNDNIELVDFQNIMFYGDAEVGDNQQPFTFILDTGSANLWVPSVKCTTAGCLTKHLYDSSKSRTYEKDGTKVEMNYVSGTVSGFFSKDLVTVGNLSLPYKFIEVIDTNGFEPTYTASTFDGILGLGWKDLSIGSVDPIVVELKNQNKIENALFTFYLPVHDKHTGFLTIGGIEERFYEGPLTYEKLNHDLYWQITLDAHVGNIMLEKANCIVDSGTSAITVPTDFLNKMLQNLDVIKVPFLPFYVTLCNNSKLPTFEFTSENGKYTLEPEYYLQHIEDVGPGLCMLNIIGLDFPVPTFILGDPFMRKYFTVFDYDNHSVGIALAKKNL

With `CCCCCNC(=O)[C@@H](NC(=O)C[C@H](O)[C@H](Cc1ccccc1)NC(=O)CCCC)C(C)C` the Ki (cathepsin D) was 400 nM.
Work on `CC(C)C[C@H](NC(=O)[C@H](C)NC(=O)C[C@H](O)[C@H](Cc1ccccc1)NC(=O)[C@@H](NC(=O)CN(C)C)C(C)C)C(N)=O` yielded an IC50 (cathepsin D) of 1000 nM.
`CC(C)C[C@H](NC(=O)[C@H](C)NC(=O)C[C@H](O)[C@H](Cc1ccccc1)NC(=O)[C@@H](NC(=O)Cc1ccccn1)C(C)C)C(N)=O` was tested, and the Ki (cathepsin D) was 20 nM.
`CC(C)C[C@H](NC(=O)[C@H](C)NC(=O)C[C@H](O)[C@H](Cc1ccccc1)NC(=O)[C@@H](NC(=O)OC(C)C)C(C)C)C(N)=O` was tested, and the IC50 (cathepsin D) was 20 nM.
Compound `CC(C)[C@@H]1NC(=O)C[C@H](O)[C@H](Cc2ccccc2)NC(=O)[C@@H](NC(=O)[C@@H](NC(=O)CC(C)(C)C)C(C)C)CSCCCSC[C@@H](C(=O)NCC(N)=O)NC1=O` has a Ki (cathepsin D) of 1.5 nM.
In the case of `CC(C)[C@@H]1NC(=O)C[C@H](O)[C@H](Cc2ccccc2)NC(=O)[C@@H](NC(=O)[C@@H](NC(=O)CC(C)(C)C)C(C)C)CSCCCCSC[C@@H](C(=O)NCC(N)=O)NC1=O`, the Ki (cathepsin D) is reported as 0.1 nM.
`CC(C)C[C@H](NC(=O)[C@@H](NC(=O)C[C@H](O)[C@@H]1CCCCNC(=O)C[C@H](NC(=O)CC(C)(C)C)C(=O)N[C@@H](C(C)C)C(=O)N1)C(C)C)C(=O)NCC(N)=O` showed a Ki (cathepsin D) of 2.5 nM.
For `CC(C)C[C@H](NC(=O)[C@H](C)NC(=O)C[C@H](O)[C@H](Cc1ccccc1)NC(=O)[C@@H](NC(=O)[C@@H](NC(=O)OC(C)C)C(C)C)C(C)C)C(N)=O` (Isopropoxycarbonyl-VV[Ahppa(3S,4S)]AL-NH2), the Ki (cathepsin D) was 0.24 nM.
With `CC(C)[C@@H]1NC(=O)C[C@H](O)[C@H](Cc2ccccc2)NC(=O)[C@@H](NC(=O)[C@@H](NC(=O)CC(C)(C)C)C(C)C)CSSC[C@@H](C(=O)NCC(N)=O)NC1=O` ({Butanoyl(3,3-Me2)}-VC[Ahppa(3S,4S)]VCG-NH2; disulfide 2-5) the Ki (cathepsin D) was 150 nM.
Compound `CC(C)[C@@H]1NC(=O)C[C@H](O)[C@H](Cc2ccccc2)NC(=O)[C@@H](NC(=O)[C@@H](NC(=O)CC(C)(C)C)C(C)C)CSCCSC[C@@H](C(=O)NCC(N)=O)NC1=O` ({Butanoyl(3,3-Me2)}-VC[Ahppa(3S,4S)]VCG-NH2; linker 2-5 via CH2CH2) has a Ki (cathepsin D) of 1.9 nM.
Compound `CC(C)[C@@H]1NC(=O)C[C@H](O)[C@H](Cc2ccccc2)NC(=O)[C@@H](NC(=O)[C@@H](NC(=O)CC(C)(C)C)C(C)C)CCC(=O)NCCCC[C@@H](C(=O)NCC(N)=O)NC1=O` ({Butanoyl(3,3-Me2)}-VE[Ahppa(3S,4S)]VKG-NH2; lactam 2-5) has a Ki (cathepsin D) of 2.3 nM.
For `CC(C)[C@@H]1NC(=O)C[C@H](O)[C@H](Cc2ccccc2)NC(=O)[C@@H](NC(=O)[C@@H](NC(=O)CC(C)(C)C)C(C)C)CCCCNC(=O)CC[C@@H](C(=O)NCC(N)=O)NC1=O` ({Butanoyl(3,3-Me2)}-VK[Ahppa(3S,4S)]VEG-NH2; lactam 2-5), the Ki (cathepsin D) was 1.4 nM.
For `CC(C)C[C@H](NC(=O)[C@@H](NC(=O)C[C@H](O)[C@H](Cc1ccccc1)NC(=O)[C@H](CC(=O)O)NC(=O)[C@@H](NC(=O)CC(C)(C)C)C(C)C)C(C)C)C(=O)NCC(N)=O` [(10), Tha--Val--Asp--Pst--Val--Leu--Gly--NH2] ({Butanoyl(3,3-Me2)}-VD[Ahppa(3S,4S)]VLG-NH2), the Ki (cathepsin D) was 2.1 nM.
In the case of `CC(C)C[C@H](NC(=O)[C@H](C)NC(=O)C[C@H](O)[C@H](Cc1ccccc1)NC(=O)[C@@H](NC(=O)c1ccccn1)C(C)C)C(N)=O` [drawing 15], the Ki (cathepsin D; target named only in b168/b175 (cathepsin D), elsewhere implied, read-out: Ki) is reported as 21 nM.
`CC(C)C[C@H](NC(=O)[C@@H](NC(=O)C[C@H](O)[C@@H]1CCCCNC(=O)CC[C@H](NC(=O)CC(C)(C)C)C(=O)N[C@@H](C(C)C)C(=O)N1)C(C)C)C(=O)NCC(N)=O` [drawing 29] showed a Ki (cathepsin D) of 0.26 nM.
Work on `CC(C)C[C@H](NC(=O)[C@@H](NC(=O)C[C@H](O)[C@@H]1CCCCNC(=O)CC[C@H](NC(=O)CC(C)(C)C)C(=O)N[C@@H](C(C)C)C(=O)N1)C(C)C)C(=O)NCC(N)=O` [drawing 40] yielded a Ki (plasmepsin II (PMII)) of 0.2 nM and a Ki (plasmepsin I (PMI)) of 22 nM.
With `CC(C)C[C@H](NC(=O)[C@H](C)NC(=O)C[C@H](O)[C@H](Cc1ccccc1)NC(=O)[C@@H](NC(=O)c1ccccn1)C(C)C)C(N)=O` [drawing 42] the Ki (plasmepsin II (PMII)) was 0.9 nM and the Ki (plasmepsin I (PMI)) was 16 nM.
